Test results from patent US12023319B2, “Carboxylic acid aromatic amides” (priority 2016, dated 2024).

What was measured:
[1] = biological target: T1, human Bradykinin B1 receptor (Homo sapiens, UniProt P46663); assay: Calcium flux assay (FLIPR), CHO-K1 cells expressing human Bradykinin B1 receptor, absence of 0.1% BSA (hB1 free IC50); type: cell-based; conditions: absence of 0.1% BSA in assay buffer
T1 construct: host or cells: CHO-K1
T1 sequence (P46663 1-353): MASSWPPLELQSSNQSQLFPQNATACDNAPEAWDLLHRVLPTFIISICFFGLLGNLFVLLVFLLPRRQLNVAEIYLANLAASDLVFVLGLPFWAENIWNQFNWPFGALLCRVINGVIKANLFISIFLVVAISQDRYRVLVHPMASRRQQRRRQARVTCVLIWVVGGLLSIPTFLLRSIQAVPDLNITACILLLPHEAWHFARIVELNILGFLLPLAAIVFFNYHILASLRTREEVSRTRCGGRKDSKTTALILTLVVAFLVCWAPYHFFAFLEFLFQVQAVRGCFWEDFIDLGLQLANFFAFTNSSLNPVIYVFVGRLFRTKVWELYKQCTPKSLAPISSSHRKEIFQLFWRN
Procedure, shortened: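 Peak FLIPR fluorescence (538 nm) after B1 agonist peptide addition gave IC50s, scaled between DMSO and full block by 20 µM Lys-(Des-Arg-Leu)-Bradykinin. Compounds were preincubated 30 min at 28° C with calcium-dye-loaded CHO-K1 cells expressing human B1, at 8 concentrations in triplicate, 1% DMSO final.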

[2] = tested on: female Sprague Daley rats; assay: Cyclophosphamide-induced overactive bladder and cystitis (rats); type: in vivo, rat
Description: 12. Cyclophosphamide-Induced Overactive Bladder and Cystitis (Rats)
The aim of this study was to test the efficacy of Compound Examples on overactive bladder as well as on interstitial cystitis and bladder pain syndrome in cyclophosphamide-treated rats.
The experimental setup is adapted to a previous described protocol (Lecci A et al, Br J Pharmacol 130: 331-38, 2000).
Strong presence and target induction of BDKRB1 in comparison to BDKRB2 has been verified by gene expression analysis in bladders removed from rats after cyclophosphamide (100 mg/kg and 150 mg/kg i.p.) induction in contrast to bladders of naïve, untreated rats. Immunohistochemistry confirmed the presence of BDKRB1 in bladders of rats after model induction, too.
Briefly, female Sprague Daley rats (˜200 g) were housed under normal conditions for laboratory rats in a 12:12-h light:dark cycle. Rats have been weighed, the tested Compound Examples were dissolved in relevant vehicle (e.g. DMSO/Water) (5/95) (v/v) and have been administrated by oral gavage in different concentrations one hour before application of cyclophosphamide (150 mg/kg) by i.p. injection. Additional 1.5 hours after cyclophosphamide administration each rat was transferred to a metabolic cage and voiding frequency has been recorded for the next 15 hours. Total amount of urine (ml) was collected via a plastic tube attached to the metabolic cages. The urine collecting tube was connected to a weight-sensitive sensor and a pressure transducer connected via an amplifier (ADIstruments) to the data acquisition software program (LabChart, ADInstruments) and a computer. […] At the end of the experiment rats have been weighed and killed under isoflurane anaesthesia and bladders have been removed and weighed. The bladders' wet weight was normalized to 100 g of body weight of each rat and analysis has been performed using GraphPad Prism 7 program.

IC50 [1] [nM]	SMILES	bladder weight normalized to 100 g of body weight ([2]; 60 mg/kg, compared to vehicle treatment, FIG. 11)	number of micturitions/hour ([2]; preventive single gavage 15 mg & 60 mg/kg, cyclophosphamide 150 mg/kg i.p., FIG. 9)	AUC during the plateau phase of the micturition (4-10 hours after transfer to metabolic cages) ([2]; preventive single gavage, both tested dosages 15 mg & 60 mg/kg, FIG. 10)
6.5	O=C(O)c1cc(NC(=O)C2(c3ccc(C(F)(F)F)cc3F)CC2)ccc1-c1cc2ccccc2s1 [Example 1, 2-(1-Benzothiophen-2-yl)-5-[({1-[2-fluoro-4-(trifluoromethyl)phenyl]cyclopropyl}carbonyl)amino]benzoic acid]	–	–	–
24	CCC(F)(F)c1ccc(-c2ccc(NC(=O)C3(c4ccc(C(F)(F)F)cc4F)CC3)cc2C(=O)O)cn1 [Example 2, 2-[6-(1,1-Difluoropropyl)pyridin-3-yl]-5-[({1-[2-fluoro-4-(trifluoromethyl)-phenyl]cyclopropyl}carbonyl)amino]benzoic acid]	–	–	–
86	O=C(O)c1cc(NC(=O)C2(c3ccc(OC(F)(F)F)cc3F)CC2)ccc1-c1ccc(C(F)F)nc1 [Example 5, 2-[6-(Difluoromethyl)pyridin-3-yl]-5-[({1-[2-fluoro-4-(trifluoromethoxy)phenyl]cyclopropyl}carbonyl)amino]benzoic acid]	–	–	–
210	O=C(O)c1cc(NC(=O)C2(c3ccc(C(F)(F)F)cc3F)CC2)ccc1-c1ccc(C(F)(F)F)nc1 [Example 6, 5-[({1-[2-Fluoro-4-(trifluoromethyl)phenyl]cyclopropyl}carbonyl)amino]-2-[6-(trifluoromethyl)pyridin-3-yl]benzoic acid]	–	–	–
13	O=C(O)c1cc(NC(=O)C2(c3ccc(C(F)(F)F)cc3F)CC2)cc(F)c1-c1ccc(C(F)(F)F)nc1 [Example 29, 3-Fluoro-5-[({1-[2-fluoro-4-(trifluoromethyl)phenyl]cyclopropyl}carbonyl)amino]-2-[6-(trifluoromethyl)pyridin-3-yl]benzoic acid]	–	–	–
6.3	O=C(O)c1cc(NC(=O)C2(c3ccc(C(F)(F)F)cc3F)CC2)cc(F)c1-c1cnn(C2CCC2)c1 [Example 42, 2-(1-Cyclobutyl-1H-pyrazol-4-yl)-3-fluoro-5-[({1-[2-fluoro-4-(trifluoromethyl)phenyl]cyclopropyl}carbonyl)amino]benzoic acid]	–	–	–

SMILES	IC50 [1] [nM]	bladder weight normalized to 100 g of body weight ([2]; 60 mg/kg, compared to vehicle treatment, FIG. 11)	number of micturitions/hour ([2]; preventive single gavage 15 mg & 60 mg/kg, cyclophosphamide 150 mg/kg i.p., FIG. 9)	AUC during the plateau phase of the micturition (4-10 hours after transfer to metabolic cages) ([2]; preventive single gavage, both tested dosages 15 mg & 60 mg/kg, FIG. 10)
O=C(O)c1cc(NC(=O)C2(c3ccc(C(F)(F)F)cc3F)CC2)ccc1-c1cnn(C2CCC2)c1 [Example 3, 2-(1-Cyclobutyl-1H-pyrazol-4-yl)-5-[({1-[2-fluoro-4-(trifluoromethyl)phenyl]cyclopropyl}carbonyl)amino]benzoic acid]	18	significantly reduced	efficacy on reducing	significantly reduced
